# Measurements from ChEMBL document CHEMBL5036340 (Eur J Med Chem, 2021).
# pIC50: −log10 of the molar value. Activity calls are given as the source filed them. The calls are words filed in the database; no cut-off is given here.
# Legend:
# in vitro = conditions: rat, HepG2 cells
# Description: Ratio of IC50 for cytotoxicity against human HepG2 cells to ratio of IC50 for inhibition of rat cortex AChE
# Butyrylcholinesterase = Butyrylcholinesterase (Rattus norvegicus, UniProt Q9JKC1)
# Description: Inhibition of rat serum BChE using butyrylthiocholine iodide as substrate by Ellman's method
# [1] = target: Voltage-gated inwardly rectifying potassium channel KCNH2 (Homo sapiens, UniProt Q12809)
# Description: Inhibition of hERG expressed in CHO-K1 cells assessed as reduction in thallium influx incubated for 30 minutes by FLIPR
# HepG2 = assay: cells; assay type: functional, cell-based; conditions: Homo sapiens, HepG2, 24 h
# Description: Cytotoxicity against human HepG2 cells assessed as reduction in cell viability incubated for 24 hrs by MTT assay
# Acetylcholinesterase = target: T1, Acetylcholinesterase (Rattus norvegicus, UniProt P37136); assay: Inhibition of rat cortex AChE using acetylthiocholine iodide as substrate by Ellman's method
# T1 sequence (P37136 whole entry): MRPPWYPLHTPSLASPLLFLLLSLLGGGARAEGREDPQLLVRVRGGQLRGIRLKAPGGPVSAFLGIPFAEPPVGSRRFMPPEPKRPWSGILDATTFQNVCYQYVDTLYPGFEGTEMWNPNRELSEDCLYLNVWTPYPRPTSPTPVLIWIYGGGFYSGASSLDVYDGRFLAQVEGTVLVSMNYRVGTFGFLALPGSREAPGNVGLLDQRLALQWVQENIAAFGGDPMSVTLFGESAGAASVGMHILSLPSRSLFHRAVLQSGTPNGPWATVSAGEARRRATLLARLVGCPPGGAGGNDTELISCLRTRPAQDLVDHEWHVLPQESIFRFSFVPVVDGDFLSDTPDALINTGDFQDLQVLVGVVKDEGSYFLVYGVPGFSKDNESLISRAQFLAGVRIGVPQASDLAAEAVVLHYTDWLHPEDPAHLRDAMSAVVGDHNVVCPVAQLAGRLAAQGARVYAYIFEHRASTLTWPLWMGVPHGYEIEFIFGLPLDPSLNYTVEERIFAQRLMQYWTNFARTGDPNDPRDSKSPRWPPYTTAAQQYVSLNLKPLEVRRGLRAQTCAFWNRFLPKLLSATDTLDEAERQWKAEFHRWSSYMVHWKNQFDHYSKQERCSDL
# [2] = Cmax in C57BL/6 mouse kidney at 10 mg/kg, po administered as single dose measured at 2.50 hrs by UPLC analysis; assay type: ADME, organism-based; set-up: route oral, time 2.5 hrs, dose 10 mg/kg
# [3] = Terminal half life in C57BL/6 mouse plasma at 10 mg/kg, po administered as single dose measured upto 24 hrs by UPLC analysis; assay type: ADME, organism-based; conditions: read-out: beta t1/2 (converted)
# [4] = AUC (0 to infinity) in C57BL/6 mouse kidney at 10 mg/kg, po administered as single dose by UPLC analysis; assay type: ADME, organism-based; set-up: route oral, time infinity, dose 10 mg/kg; conditions: in vivo
# [5] = MRT (0 to infinity) in C57BL/6 mouse brain at 10 mg/kg, po administered as single dose measured upto 24 hrs by UPLC analysis; assay type: ADME, organism-based
# [6] = MRT (0 to infinity) in C57BL/6 mouse plasma at 10 mg/kg, po administered as single dose measured upto 24 hrs by UPLC analysis; assay type: ADME, organism-based
# [7] = MRT (0 to infinity) in C57BL/6 mouse liver at 10 mg/kg, po administered as single dose by UPLC analysis; assay type: ADME, organism-based
# [8] = MRT (0 to infinity) in C57BL/6 mouse kidney at 10 mg/kg, po administered as single dose by UPLC analysis; assay type: ADME, organism-based
# Mus musculus = organism: Mus musculus; assay: Anti-alzheimer activity in C57BL/6 mouse assessed as decrease in pirenzepine induced LTP at 1 microM pretreated for 90 mins and further incubated with pirenzepine for 30 mins followed by high frequency stimulation by electrophysiological recording; assay type: functional, organism-based; conditions: time 120.0 min
# [9] = AUC (0 to infinity) in C57BL/6 mouse plasma at 10 mg/kg, po administered as single dose measured upto 24 hrs by UPLC analysis; assay type: ADME, organism-based; set-up: route oral, dose 10 mg/kg, time <=24; conditions: in vivo
# Hippocampus = assay: Anti-alzheimer activity in theta-burst stimulated C57BL/6 mouse hippocampus CA3 region assessed as enhancement of synaptic strength by measuring long term potentiation in brain slice at 3 mg/kg, po for 4 days by electrophysiological recording relative to control; assay type: functional, organism-based; conditions: time 4.0 day
# [10] = Tmax in C57BL/6 mouse plasma at 10 mg/kg, po administered as single dose measured upto 24 hrs by UPLC analysis; assay type: ADME, organism-based
# [11] = Tmax in C57BL/6 mouse brain at 10 mg/kg, po administered as single dose measured upto 24 hrs by UPLC analysis; assay type: ADME, organism-based
# [12] = AUC (0 to t) in C57BL/6 mouse plasma at 10 mg/kg, po administered as single dose measured upto 24 hrs by UPLC analysis; assay type: ADME, organism-based; set-up: route oral, dose 10 mg/kg, time <=24; conditions: in vivo
# [13] = Terminal half life in C57BL/6 mouse kidney at 10 mg/kg, po administered as single dose by UPLC analysis; assay type: ADME, organism-based; conditions: read-out: beta t1/2 (converted)
# [14] = Terminal half life in C57BL/6 mouse brain at 10 mg/kg, po administered as single dose measured upto 24 hrs by UPLC analysis; assay type: ADME, organism-based; conditions: read-out: beta t1/2 (converted)
# [15] = Cmax in C57BL/6 mouse brain at 10 mg/kg, po administered as single dose measured at […] by UPLC analysis; assay type: ADME, organism-based
# [16] = target: T2, Acetylcholinesterase (Rattus norvegicus) (UniProt P37136); assay: Mixed-type inhibition of rat cortex AChE at 0.5 to 1.5 nM using varying levels of acetylthiocholine iodide as substrate measured at 5 minutes by Ellman's method based Lineweaver-Burk plot analysis; conditions: dose 0.5-1.5 nM
# T2 sequence (whole entry): T1 sequence (P37136 whole entry)
# [17] = AUC (0 to infinity) in C57BL/6 mouse brain at 10 mg/kg, po administered as single dose measured upto 24 hrs by UPLC analysis; assay type: ADME, organism-based; set-up: route oral, dose 10 mg/kg, time <=24; conditions: in vivo
# [18] = Cmax in C57BL/6 mouse liver at 10 mg/kg, po administered as single dose measured at 1.75 hrs by UPLC analysis; assay type: ADME, organism-based; set-up: route oral, time 1.75 hrs, dose 10 mg/kg
# [19] = Terminal half life in C57BL/6 mouse liver at 10 mg/kg, po administered as single dose by UPLC analysis; assay type: ADME, organism-based; conditions: read-out: beta t1/2 (converted)
# [20] = Cmax in C57BL/6 mouse plasma at 10 mg/kg, po administered as single dose measured at 2.25 hrs by UPLC analysis; assay type: ADME, organism-based; set-up: route oral, dose 10 mg/kg, time 2.25 hrs
# [21] = Tmax in C57BL/6 mouse kidney at 10 mg/kg, po administered as single dose by UPLC analysis; assay type: ADME, organism-based
# [22] = AUC (0 to infinity) in C57BL/6 mouse liver at 10 mg/kg, po administered as single dose by UPLC analysis; assay type: ADME, organism-based; set-up: time infinity, route oral, dose 10 mg/kg; conditions: in vivo
# [23] = Drug concentration in C57BL/6 mouse muscle at 10 mg/kg, po administered as single dose by UPLC analysis; assay type: ADME, organism-based, Muscle tissue; conditions: in vivo
# [24] = Tmax in C57BL/6 mouse liver at 10 mg/kg, po administered as single dose by UPLC analysis; assay type: ADME, organism-based
# Voltage-gated inwardly rectifying potassium channel KCNH2, sequence (Q12809 whole entry): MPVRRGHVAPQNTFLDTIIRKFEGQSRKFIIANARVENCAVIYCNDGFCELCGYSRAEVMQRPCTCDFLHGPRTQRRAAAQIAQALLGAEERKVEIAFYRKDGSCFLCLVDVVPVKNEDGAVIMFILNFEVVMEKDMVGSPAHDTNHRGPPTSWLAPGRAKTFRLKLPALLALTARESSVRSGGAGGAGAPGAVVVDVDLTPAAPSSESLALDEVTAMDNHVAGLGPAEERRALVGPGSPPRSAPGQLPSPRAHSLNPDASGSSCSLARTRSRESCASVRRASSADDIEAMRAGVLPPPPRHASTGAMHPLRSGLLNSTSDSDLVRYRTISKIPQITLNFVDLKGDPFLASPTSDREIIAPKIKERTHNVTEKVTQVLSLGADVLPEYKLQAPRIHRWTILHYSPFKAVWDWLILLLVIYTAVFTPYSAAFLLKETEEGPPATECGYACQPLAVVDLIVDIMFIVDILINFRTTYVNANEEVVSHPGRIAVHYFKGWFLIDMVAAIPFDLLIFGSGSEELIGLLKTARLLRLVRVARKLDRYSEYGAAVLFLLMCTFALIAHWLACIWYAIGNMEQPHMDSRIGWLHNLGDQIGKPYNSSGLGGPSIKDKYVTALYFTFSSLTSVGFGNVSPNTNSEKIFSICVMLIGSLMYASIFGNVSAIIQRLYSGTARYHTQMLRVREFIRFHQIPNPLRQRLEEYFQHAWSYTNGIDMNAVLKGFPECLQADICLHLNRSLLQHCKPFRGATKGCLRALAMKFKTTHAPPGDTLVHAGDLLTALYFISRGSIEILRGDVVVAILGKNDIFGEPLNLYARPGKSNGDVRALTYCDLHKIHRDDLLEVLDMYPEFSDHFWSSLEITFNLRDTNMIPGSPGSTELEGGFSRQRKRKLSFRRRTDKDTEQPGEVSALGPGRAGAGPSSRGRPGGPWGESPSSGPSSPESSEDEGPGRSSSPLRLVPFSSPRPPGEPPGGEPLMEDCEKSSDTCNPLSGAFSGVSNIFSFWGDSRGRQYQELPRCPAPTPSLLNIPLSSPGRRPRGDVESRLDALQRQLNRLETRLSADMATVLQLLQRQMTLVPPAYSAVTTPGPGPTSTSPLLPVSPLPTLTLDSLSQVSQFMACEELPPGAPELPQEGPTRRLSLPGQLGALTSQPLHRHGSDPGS
# Butyrylcholinesterase, sequence (Q9JKC1 whole entry): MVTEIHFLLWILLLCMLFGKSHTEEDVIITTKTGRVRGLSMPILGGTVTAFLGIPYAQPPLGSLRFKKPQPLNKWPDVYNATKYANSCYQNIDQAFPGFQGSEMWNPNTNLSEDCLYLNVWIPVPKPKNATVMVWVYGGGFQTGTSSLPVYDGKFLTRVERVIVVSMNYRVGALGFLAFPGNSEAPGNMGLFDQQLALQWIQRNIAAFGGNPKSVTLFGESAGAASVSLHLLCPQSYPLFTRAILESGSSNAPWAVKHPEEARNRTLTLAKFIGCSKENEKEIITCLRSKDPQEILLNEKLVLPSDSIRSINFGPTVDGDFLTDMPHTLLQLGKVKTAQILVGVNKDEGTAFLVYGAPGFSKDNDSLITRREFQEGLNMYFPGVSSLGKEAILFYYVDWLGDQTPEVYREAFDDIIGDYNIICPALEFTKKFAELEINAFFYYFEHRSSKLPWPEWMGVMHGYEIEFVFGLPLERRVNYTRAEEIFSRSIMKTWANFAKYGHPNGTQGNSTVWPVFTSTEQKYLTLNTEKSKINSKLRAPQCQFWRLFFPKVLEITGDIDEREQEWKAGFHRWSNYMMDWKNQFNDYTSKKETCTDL
compound,measurement,setting,value
O=c1ccc2c([nH]1)CCC(NCCCCCCCCNc1c3c(nc4cc(Cl)ccc14)CCCC3)C2 (configuration not stated),selectivity ratio,in vitro,3340
same,pIC50,Butyrylcholinesterase,5.87
same,pIC50,[1],5.66
same,pIC50,HepG2,4.37
same,pIC50,Acetylcholinesterase,7.89
O=c1ccc2c([nH]1)CCC(NCCCCCCCNc1c3c(nc4cc(Cl)ccc14)CCCC3)C2 (configuration not stated),selectivity ratio,in vitro,2660
same,pIC50,Butyrylcholinesterase,6.05
same,pIC50,[1],5.20
same,pIC50,HepG2,4.41
same,pIC50,Acetylcholinesterase,7.83
O=c1ccc2c([nH]1)CCC(NCCCCCCCCCCNc1c3c(nc4cc(Cl)ccc14)CCCC3)C2 (configuration not stated),selectivity ratio,in vitro,260
same,pIC50,Butyrylcholinesterase,5.42
same,pIC50,[1],5.56
same,pIC50,HepG2,4.76
same,pIC50,Acetylcholinesterase,7.18
O=c1ccc2c([nH]1)CCC(NCCCCCCCCCNc1c3c(nc4cc(Cl)ccc14)CCCC3)C2 (configuration not stated),pIC50,Butyrylcholinesterase,5.97
same,pIC50,HepG2,4.45
same,pIC50,Acetylcholinesterase,7.54
COc1cc2c(cc1OC)C(=O)C(CC1CCN(Cc3ccccc3)CC1)C2 (configuration not stated) [DONEPEZIL],pIC50,HepG2,3.58
O=c1ccc2c([nH]1)CCC(NCCCCCNc1c3c(nc4cc(Cl)ccc14)CCCC3)C2 (configuration not stated),selectivity ratio,in vitro,8340
same,pIC50,Butyrylcholinesterase,6.30
same,pIC50,[1],5.12
same,pIC50,HepG2,4.33
same,pIC50,Acetylcholinesterase,8.25
O=c1ccc2c([nH]1)CCC(NCCCCCCNc1c3c(nc4cc(Cl)ccc14)CCCC3)C2 (configuration not stated),selectivity ratio,in vitro,8520
same,pIC50,Butyrylcholinesterase,6.24
same,pIC50,[1],4.93
same,pIC50,HepG2,4.29
same,pIC50,Acetylcholinesterase,8.22
O=c1ccc2c([nH]1)CCC(NCCCNc1c3c(nc4cc(Cl)ccc14)CCCC3)C2 (configuration not stated),Cmax,[2],165 ng/mL
same,selectivity ratio,in vitro,119000
same,half-life,[3],7.89 h
same,AUC,[4],1124.93 g/h
same,pIC50,Butyrylcholinesterase,6.70
same,MRT inf,[5],11.1 h
same,pIC50,[1],5.05
same,MRT inf,[6],10.8 h
same,MRT inf,[7],8.39 h
same,MRT inf,[8],11.1 h
same,Activity,Mus musculus,Active
same,AUC,[9],279 ng·h/mL
same,Activity,Hippocampus,Active
same,pIC50,HepG2,3.97
same,Tmax,[10],2.25 h
same,Tmax,[11],2.75 h
same,AUCt,[12],246 ng·h/mL
same,half-life,[13],7.49 h
same,half-life,[14],7.8 h
same,Cmax at […],[15],4.02 ng/mL
same,inhibition,[16],Active
same,AUC,[17],21.86 g/h
same,Cmax,[18],148 ng/mL
same,half-life,[19],7.16 h
same,Cmax,[20],68.3 ng/mL
same,pIC50,Acetylcholinesterase,9.05
same,Tmax,[21],2.5 h
same,AUC,[22],534.14 g/h
same,Drug uptake,[23],Not Active
same,Tmax,[24],1.75 h
O=c1ccc2c([nH]1)CCC(NCCNc1c3c(nc4cc(Cl)ccc14)CCCC3)C2 (configuration not stated),selectivity ratio,in vitro,12100
same,pIC50,Butyrylcholinesterase,6.40
same,pIC50,[1],5.62
same,pIC50,HepG2,3.67
same,pIC50,Acetylcholinesterase,7.75
O=c1ccc2c([nH]1)CCC(NCCCCNc1c3c(nc4cc(Cl)ccc14)CCCC3)C2 (configuration not stated),pIC50,Butyrylcholinesterase,6.46
same,pIC50,HepG2,3.96
same,pIC50,Acetylcholinesterase,8.53
